From patent US20230330196A1, “IMMUNOSUPPRESSIVE AGENTS” (The Trustees of Columbia University in the City of New York, priority 2020, published 2023) come the findings set out here.

In this assay the test system is allo-reactive T cells. Description: Mixed lymphocyte reaction, B6 SPCs cocultured with irradiated BALB/c SPCs with WT or E223A mutant MMP13. The format is cell-based, mouse. The note with it: 5 days coculture. As to the method:
Flow cytometric analysis: Single-cell suspensions were filtered through nylon mesh and stained with the following antibodies: CD3, CD4, CD8, CD25, IFN-g, PD-L1, CD11c, B220, CD11b, F4/80, and then analyzed by FCM using Fortessa.
SPCs from B6 mice were seeded at 5×10e5/well, cocultured with irradiated BALB/c SPCs (5×10e5/well) in the presence of recombinant human MMP13 (WT-MMP13) or mutant MMP13 (E223A, muMMP13) proteins for 5 days.

As to “mu-MMP13: catalytically-inactive E223A point mutant of MMP-13”, the “CFSElo CD25+ of CD4+ T cells” value (decreased from 21.1% without MMP13) was found to be 3.2%. For the same substance, for the setting “down from 41.5% without MMP13”, the “CFSElo CD25+ of CD8+ T cells” value is 2.5%.
